Measurements from patent publication US20120184006A1, “Reductase Enzymes” (UTAH STATE UNIVERSITY, priority 2011, published 2012).
Each block holds one molecule with its values, some of them ahead of it.

Experiments:
[1] = target: T1, fatty acyl-CoA reductase (FACoAR) from M. aquaeolei VT8 (Marinobacter nauticus (Marinobacter aquaeolei), UniProt A1U3L3); assay: Continuous spectrophotometric NADPH assay (decrease of NADPH at 340 nm); type: biochemical; details: for Rate of Reaction (nmol NADP^+ min^−1 mg proten^−1): 60 μm of the respective aldehyde as substrate; for % Specific Activity of Decanal: percent of the specific activity of decanal, 60 μm aldehyde
T1 sequence (A1U3L3 1-661): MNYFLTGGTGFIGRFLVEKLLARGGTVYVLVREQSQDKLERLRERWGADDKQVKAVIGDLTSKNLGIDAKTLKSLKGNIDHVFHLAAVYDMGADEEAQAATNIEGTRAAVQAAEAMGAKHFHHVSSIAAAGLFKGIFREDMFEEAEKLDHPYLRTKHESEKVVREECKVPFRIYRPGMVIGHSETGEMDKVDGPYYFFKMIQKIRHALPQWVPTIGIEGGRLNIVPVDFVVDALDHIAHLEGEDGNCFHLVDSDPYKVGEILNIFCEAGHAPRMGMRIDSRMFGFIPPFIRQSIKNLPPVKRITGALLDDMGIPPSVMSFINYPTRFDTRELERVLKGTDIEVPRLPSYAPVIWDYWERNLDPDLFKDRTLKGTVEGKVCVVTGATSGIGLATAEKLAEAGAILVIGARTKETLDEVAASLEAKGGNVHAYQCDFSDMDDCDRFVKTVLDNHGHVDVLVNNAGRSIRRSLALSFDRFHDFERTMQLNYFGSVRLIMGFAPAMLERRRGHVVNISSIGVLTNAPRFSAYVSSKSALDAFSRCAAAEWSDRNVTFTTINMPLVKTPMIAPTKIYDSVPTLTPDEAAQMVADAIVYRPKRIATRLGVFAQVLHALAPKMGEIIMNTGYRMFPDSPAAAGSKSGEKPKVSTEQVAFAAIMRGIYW
Description: (§1) All assays were conducted in a total volume of 1 mL. A buffer containing 50 mM NaCl, 20 mM Tris-HCl pH 7.0, and 0.5 mg/mL BSA was prepared along with a 1 mM stock of aldehyde dissolved in dimethyl sulfoxide (DMSO) or a 0.1 mM stock of the acyl-CoA, and […] NADPH. All components including protein were degassed in sealed vials and placed under an argon atmosphere. NADPH was degassed as the solid prior to the addition of degassed buffer. Each assay was conducted by adding 75 μL of the NADPH stock, 58 μg protein for acyl-CoA assays or 15 μg protein for aldehyde assays, varying concentrations of aldehyde or acyl-CoA and buffer to bring the final volume to 1 mL. Each sample was continuously monitored for the decrease of NADPH at 340 nm on a Varian 50 Bio UV-visible spectrophotometer (Walnut Creek, Calif.). Initial rates were calculated in Excel using the linear initial rates of reaction obtained from the spectrophotometric assays by obtaining the slope from the best. In line and calculating nmol of NADPH oxidized per second. (Microsoft, Redmond, Wash.). These initial rates were used to calculate Km and Vmax values using the Igor Pro software package (Wavemetrics, Lake Oswego, Oreg.) fitting the initial rates to the Hill equation (31). NADPH specific activity assays were conducted identically as described above using a fixed 60 μM concentration of the various aldehyde substrates or 6 μM of the various acyl-CoA substrates.

[2] = target: T1, fatty acyl-CoA reductase (FACoAR) from M. aquaeolei VT8; assay: Continuous spectrophotometric DTNB assay (release of free CoA); type: biochemical; details: for Rate of Reaction (nmol NTB^2− min^−1 mg protein^−1): 6 μM of the respective CoA as substrate; for % Specific Activity of Palmitoyl-CoA: percent of the specific activity of palmitoyl-CoA, 6 μM substrate
Description: Buffers and solutions were prepared as described above for NADPH assays. Each assay was conducted by adding 75 μL of the 2 mg/mL NADPH stock solution in buffer, 58 μg of protein, and 10 μL of a 10 mg/mL solution of DTNB in DMSO, varying concentrations of acyl-CoA and buffer to bring the volume to 1 mL. Reduction of acyl-CoA substrate was monitored by following the increase of the 2-nitro-5-thiobenzoate (NTB^2−) dianion concentration at 412 nm. […] These initial rates were used to calculate the apparent K, and Vmax values using the Igor Pro (Wavemetrics, Lake Oswego, Oreg.) software package fitting the initial rates to the Hill equation (Equation 1) where v is the initial velocity, Vmax is the maximum calculated velocity, [S]^n is the concentration of substrate and n is the Hill coefficient, K0.5^n is the approximation of Km or the approximate substrate concentration at which half of Vmax is obtained at a specific value of the Hill coefficient n. In the case of enzyme inhibition, a modified version of the Hill equation allowing for cooperative inhibition (Equation 2) where all of the coefficients are defined as for the Hill equation and the additional [i]^n is the concentration of inhibitor and n is the Hill coefficient. The Ki^n is the approximate concentration of inhibitor it takes to double the K0.5 at a specific value of the Hill coefficient n.

[3] = tested on: FALDR (fatty aldehyde reductase) from M. aquaeolei VT8; details: previously tested enzyme, aldehyde substrate; cited from earlier work
M. aquaeolei VT8 FACoAR = assay: Addition of detergents and reducing agents to the FACoAR kinetic assay; type: biochemical, Marinobacter aquaeolei VT8; details: varying concentrations (isopropanol 5%)
From the text: As part of our characterization, we attempted to alleviate the sigmoidal response of activity to substrate concentration by the addition of reducing agents and detergents. In the case of another type of acyl-CoA reductase, HMG-CoA reductase, the addition of reducing agents and/or detergents could limit, but not eliminate the sigmoidal kinetics related to cooperative binding. […] This seems to indicate the potential of some inter- or intra-protein interaction that is necessary for the activity to occur. To further investigate this possibility, the protein was analyzed by size exclusion chromatography to determine the native weight of the protein.

[4] = substrate: CCCCCCCCCCCCCCCC(=O)SCCNC(=O)CCNC(=O)[C@H](O)C(C)(C)COP(=O)(O)OP(=O)(O)OC[C@H]1O[C@@H](n2cnc3c(N)ncnc32)[C@H](O)[C@@H]1OP(=O)(O)O; assay: Continuous spectrophotometric DTNB assay (release of free CoA); type: biochemical, Marinobacter aquaeolei VT8
[5] = substrate: CCCC/C=C\CCCCCCCCCC=O; assay: Continuous spectrophotometric NADPH assay (decrease of NADPH at 340 nm); type: biochemical, Marinobacter aquaeolei VT8; details: pH 7.0
Description: as §1

[6] = substrate: CCCCCCCCCCCCCCCC(=O)SCCNC(=O)CCNC(=O)[C@H](O)C(C)(C)COP(=O)(O)OP(=O)(O)OC[C@H]1O[C@@H](n2cnc3c(N)ncnc32)[C@H](O)[C@@H]1OP(=O)(O)O; assay: as above; type: biochemical, Marinobacter aquaeolei VT8; details: other: FIG. 5, NADPH assay, acyl-CoA substrate; pH 7.0
Description: as §1

[7] = running text b50, fatty aldehyde reduction
[8] = other: FIG. 6, NADPH assay, aldehyde substrate

Molecule: O=Cc1ccc2ccccc2c1 [2-Naphthaldehyde]
Rate of Reaction (nmol NADP^+ min^−1 mg proten^−1) [1]: 5280 ± 10 nmol NADP^+ min^−1 mg proten^−1
% Specific Activity of Decanal [1]: 3%

Molecule: CC=O [Acetaldehyde]
Rate of Reaction (nmol NADP^+ min^−1 mg proten^−1) [1]: 54 ± 6.0 nmol NADP^+ min^−1 mg proten^−1
% Specific Activity of Decanal [1]: <1%

Molecule: CCCCC/C=C\C/C=C\C/C=C\C/C=C\CCCC(=O)SCCNC(=O)CCNC(=O)[C@H](O)C(C)(C)COP(=O)(O)OP(=O)(O)OC[C@H]1O[C@@H](n2cnc3c(N)ncnc32)[C@H](O)[C@@H]1OP(=O)(O)O [Arachidonoyl-CoA]
Rate of Reaction (nmol NTB^2− min^−1 mg protein^−1) [2]: 50.7 ± 3.66 nmol NTB^2− min^−1 mg protein^−1
% Specific Activity of Palmitoyl-CoA [2]: 93%

Molecule: CCCC/C=C\CCCCCCCCCC=O [Cis-11-hexadecenal]
Rate of Reaction (nmol NADP^+ min^−1 mg proten^−1) [1]: 9910 ± 600 nmol NADP^+ min^−1 mg proten^−1
n (Hill coefficient) ([1]; FIG. 6, NADPH assay, aldehyde substrate): 2±0.8
Km ([1]; fatty aldehyde reduction, read-out: Km (Hill equation)): 25 µM
% Specific Activity of Decanal [1]: 63%
Vmax [1, 7]: ~10 µmol/min/mg
cooperativity n [1, 7]: ~2
Km [3]: 177 µM
Vmax [3]: approximately 60 nmols min^−1 mg^−1

Molecule: CCCCCCCCCC=O [Decanal]
Rate of Reaction (nmol NADP^+ min^−1 mg proten^−1) [1]: 15800 ± 860 nmol NADP^+ min^−1 mg proten^−1
% Specific Activity of Decanal [1]: 100%

Molecule: CCCCCCCCCCCC=O [Dodecanal]
Rate of Reaction (nmol NADP^+ min^−1 mg proten^−1) [1]: 11700 ± 250 nmol NADP^+ min^−1 mg proten^−1
% Specific Activity of Decanal [1]: 74%

Molecule: CCCCCC=O [Hexanal]
Rate of Reaction (nmol NADP^+ min^−1 mg proten^−1) [1]: 1540 ± 30.0 nmol NADP^+ min^−1 mg proten^−1
% Specific Activity of Decanal [1]: 10%

Molecule: CCCCCCCCCCCC(=O)SCCNC(=O)CCNC(=O)[C@H](O)C(C)(C)COP(=O)(O)OP(=O)(O)OC[C@H]1O[C@@H](n2cnc3c(N)ncnc32)[C@H](O)[C@@H]1OP(=O)(O)O [Lauroyl-CoA]
Rate of Reaction (nmol NTB^2− min^−1 mg protein^−1) [2]: 44.0 ± 6.3 nmol NTB^2− min^−1 mg protein^−1
% Specific Activity of Palmitoyl-CoA [2]: 80%

% Specific Activity of Palmitoyl-CoA [2]: 58%
Molecule: CCCCCCCCCCCCCC(=O)SCCNC(=O)CCNC(=O)[C@H](O)C(C)(C)COP(=O)(O)OP(=O)(O)OC[C@H]1O[C@@H](n2cnc3c(N)ncnc32)[C@H](O)[C@@H]1OP(=O)(O)O [Myristoyl-CoA]
Rate of Reaction (nmol NTB^2− min^−1 mg protein^−1) [2]: 34.1 ± 2.1 nmol NTB^2− min^−1 mg protein^−1

Molecule: CCCCCCCC=O [Octanal]
Rate of Reaction (nmol NADP^+ min^−1 mg proten^−1) [1]: 5200 ± 1500 nmol NADP^+ min^−1 mg proten^−1
% Specific Activity of Decanal [1]: 33%

Molecule: CCCCCCCC(=O)SCCNC(=O)CCNC(=O)[C@H](O)C(C)(C)COP(=O)(O)OP(=O)(O)OC[C@H]1O[C@@H](n2cnc3c(N)ncnc32)[C@H](O)[C@@H]1OP(=O)(O)O [Octanoyl-CoA]
Rate of Reaction (nmol NTB^2− min^−1 mg protein^−1) [2]: 18.8 ± 0.83 nmol NTB^2− min^−1 mg protein^−1
% Specific Activity of Palmitoyl-CoA [2]: 34%

Molecule: CCCCCCCC/C=C\CCCCCCCC(=O)SCCNC(=O)CCNC(=O)[C@H](O)C(C)(C)COP(=O)(O)OP(=O)(O)OC[C@H]1O[C@@H](n2cnc3c(N)ncnc32)[C@H](O)[C@@H]1OP(=O)(O)O [Oleyl-CoA]
Rate of Reaction (nmol NTB^2− min^−1 mg protein^−1) [2]: 41.5 ± 3.1 nmol NTB^2− min^−1 mg protein^−1
% Specific Activity of Palmitoyl-CoA [2]: 76%

Molecule: CCC=O [Propanal]
Rate of Reaction (nmol NADP^+ min^−1 mg proten^−1) [1]: 43 ± 6.0 nmol NADP^+ min^−1 mg proten^−1
% Specific Activity of Decanal [1]: <1%

Molecule: CCCCCCCCCCCCCCCCCC(=O)SCCNC(=O)CCNC(=O)[C@H](O)C(C)(C)COP(=O)(O)OP(=O)(O)OC[C@H]1O[C@@H](n2cnc3c(N)ncnc32)[C@H](O)[C@@H]1OP(=O)(O)O [Stearoyl-CoA]
Rate of Reaction (nmol NTB^2− min^−1 mg protein^−1) [2]: 37.6 ± 3.5 nmol NTB^2− min^−1 mg protein^−1
% Specific Activity of Palmitoyl-CoA [2]: 69%

Molecule: CC(C)O [isopropanol]
effect on FACoAR activity (M. aquaeolei VT8 FACoAR): inhibited activity

Molecule: OCCS [β-mercaptoethanol]
effect on FACoAR activity (M. aquaeolei VT8 FACoAR): inhibited activity

Molecule: Triton X-100
effect on FACoAR activity (M. aquaeolei VT8 FACoAR): inhibited activity

B1: fatty acyl-CoA reductase (FACoAR) from M. aquaeolei VT8 (Marinobacter nauticus VT8) (protein)
chain: MNYFLTGGTGFIGRFLVEKLLARGGTVYVLVREQSQDKLERLRERWGADDKQVKAVIGDLTSKNLGIDAKTLKSLKGNIDHVFHLAAVYDMGADEEAQAATNIEGTRAAVQAAEAMGAKHFHHVSSIAAAGLFKGIFREDMFEEAEKLDHPYLRTKHESEKVVREECKVPFRIYRPGMVIGHSETGEMDKVDGPYYFFKMIQKIRHALPQWVPTIGIEGGRLNIVPVDFVVDALDHIAHLEGEDGNCFHLVDSDPYKVGEILNIFCEAGHAPRMGMRIDSRMFGFIPPFIRQSIKNLPPVKRITGALLDDMGIPPSVMSFINYPTRFDTRELERVLKGTDIEVPRLPSYAPVIWDYWERNLDPDLFKDRTLKGTVEGKVCVVTGATSGIGLATAEKLAEAGAILVIGARTKETLDEVAASLEAKGGNVHAYQCDFSDMDDCDRFVKTVLDNHGHVDVLVNNAGRSIRRSLALSFDRFHDFERTMQLNYFGSVRLIMGFAPAMLERRRGHVVNISSIGVLTNAPRFSAYVSSKSALDAFSRCAAAEWSDRNVTFTTINMPLVKTPMIAPTKIYDSVPTLTPDEAAQMVADAIVYRPKRIATRLGVFAQVLHALAPKMGEIIMNTGYRMFPDSPAAAGSKSGEKPKVSTEQVAFAAIMRGIYW
K0.5 ([4]; acyl-CoA reduction, data of both DTNB and NADPH assays): 4 µM
Km ([4]; other: FIG. 5, DTNB assay, Hill fit, substrate): 4 ± 0.3 µM
K0.5 ([5]; fatty aldehyde reduction): 25 µM
Km [5, 8]: 48 ± 7 µM
Vmax [5, 8]: 7.7±0.6 μmol min^−1 mg of protein^−1
Km [6]: 4.0 ± 0.2 µM
